Laboratory results reported in patent publication US20260324639A1, “MICROBIOCIDAL PYRAZOLE DERIVATIVES” (SYNGENTA CROP PROTECTION AG, priority 2022, published 2026).

Tests used:
Alternaria solani = assay: Alternaria solani/tomato/leaf disc (early blight); assay type: in vivo; details: 200 ppm; tomato leaf disks cv. Baby; inoculated 2 days after application; assessed 5-7 days after application
Description: Tomato leaf disks cv. Baby are placed on agar in multiwell plates (24-well format) and sprayed with the formulated test compound diluted in water. The leaf disks are inoculated with a spore suspension of the fungus 2 days after application. The inoculated leaf disks are incubated at 23° C./21° C. (day/night) and 80% rh under a light regime of 12/12 h (light/dark) in a climate cabinet and the activity of a compound is assessed as percent disease control compared to untreated when an appropriate level of disease damage appears on untreated check disk leaf disks (5-7 days after application).

Botryotinia fuckeliana = Botryotinia fuckeliana (Botrytis cinerea)/liquid culture (gray mould); assay type: cell-based; details: liquid culture, Vogels broth, 24° C., growth inhibition photometric 3-4 days after application, read-out: control of Botryotinia fuckeliana compared to untreated control
Description: (§1) Conidia of the fungus from cryogenic storage are directly mixed into nutrient broth (Vogels broth). After placing a (DMSO) solution of test compound into a microtiter plate (96-well format), the nutrient broth containing the fungal spores is added. The test plates are incubated at 24° C. and the inhibition of growth is determined photometrically 3-4 days after application.

Glomerella lagenarium = Glomerella lagenarium (Colletotrichum lagenarium)/liquid culture (anthracnose); assay type: cell-based; details: Colletotrichum orbiculare, liquid culture, PDB, 24° C., growth inhibition photometric 3-4 days after application, read-out: control of Glomerella lagenarium compared to untreated control
Description: as §1, with “(PDB potato dextrose” for “(Vogels”, “measured” for “determined”

[1] = test system: Blumeria graminis f. sp. tritici; assay: Blumeria graminis f. sp. tritici/wheat/leaf disc preventative (powdery mildew on wheat); assay type: in vivo; details: 200 ppm, wheat leaf segments cv. Kanzler, inoculated 1 day after application, assessed 6-8 days after application
Description: Wheat leaf segments cv. Kanzler are placed on agar in a multiwell plate (24-well format) and sprayed with the formulated test compound diluted in water. The leaf disks are inoculated by shaking powdery mildew infected plants above the test plates 1 day after application. The inoculated leaf disks are incubated at 20° C. and 60% rh under a light regime of 24 h darkness followed by 12 h light/12 h darkness in a climate chamber and the activity of a compound is assessed as percent disease control compared to untreated when an appropriate level of disease damage appears on untreated check leaf segments (6-8 days after application).

Fusarium culmorum = assay: microbe, parasite or virus in culture; assay type: cell-based; details: read-out: control of Fusarium culmorum compared to untreated control
Description: as §1, with “(PDB potato dextrose” for “(Vogels”

Phaeosphaeria nodorum = Phaeosphaeria nodorum (Septoria nodorum)/wheat/leaf disc preventative (glume blotch); assay type: in vivo; details: 200 ppm, wheat leaf segments cv. Kanzler, inoculated 2 days after application, assessed 5-7 days after application
Description: (§2) Wheat leaf segments cv. Kanzler are placed on agar in a multiwell plate (24-well format) and sprayed with the formulated test compound diluted in water. The leaf disks are inoculated with a spore suspension of the fungus 2 days after application. The inoculated test leaf disks are incubated at 20° C. and 75% rh under a light regime of 12 h light/12 h darkness in a climate cabinet and the activity of a compound is assessed as percent disease control compared to untreated when an appropriate level of disease damage appears in untreated check leaf disks (5-7 days after application).

Monographella nivalis = Monographella nivalis (Microdochium nivale)/liquid culture (foot rot cereals); assay type: cell-based; details: liquid culture, PDB, 24° C., growth inhibition photometric 4-5 days after application, read-out: control of Monographella nivalis compared to untreated control
Description: as §1, with “(PDB potato dextrose” for “(Vogels”, “4-5” for “3-4”

Mycosphaerella arachidis = Mycosphaerella arachidis (Cercospora arachidicola)/liquid culture (early leaf spot); assay type: cell-based; details: liquid culture, PDB, 24° C., growth inhibition photometric 4-5 days after application, read-out: control of Mycosphaerella arachidis compared to untreated control
Description: as §1, with “(PDB potato dextrose” for “(Vogels”, “4-5” for “3-4”

[2] = test system: Puccinia recondita f. sp. tritici; assay: Puccinia recondita f. sp. tritici/wheat/leaf disc curative (brown rust); assay type: in vivo; details: 200 ppm, applied 1 day after inoculation, wheat leaf segments cv. Kanzler, assessed 6-8 days after application
Description: Wheat leaf segments cv. Kanzler are placed on agar in multiwell plates (24-well format). The leaf segments are inoculated with a spore suspension of the fungus. Plates are stored in darkness at 19° C. and 75% rh. The formulated test compound diluted in water is applied 1 day after inoculation. The leaf segments are incubated at 19° C. and 75% rh under a light regime of 12 h light/12 h darkness in a climate cabinet and the activity of a compound is assessed as percent disease control compared to untreated when an appropriate level of disease damage appears in untreated check leaf segments (6-8 days after application).

[3] = test system: Puccinia recondita f. sp. tritici; assay: Puccinia recondita f. sp. tritici/wheat/leaf disc preventative (brown rust); assay type: in vivo; details: 200 ppm, inoculated 1 day after application, wheat leaf segments cv. Kanzler, assessed 7-9 days after application
Description: Wheat leaf segments cv. Kanzler are placed on agar in multiwell plates (24-well format) and sprayed with the formulated test compound diluted in water. The leaf disks are inoculated with a spore suspension of the fungus 1 day after application. The inoculated leaf segments are incubated at 19° C. and 75% rh under a light regime of 12 h light/12 h darkness in a climate cabinet and the activity of a compound is assessed as percent disease control compared to untreated when an appropriate level of disease damage appears in untreated check leaf segments (7-9 days after application).

Pyrenophora teres = assay: Pyrenophora teres/barley/leaf disc preventative (net blotch); assay type: in vivo; details: 200 ppm, barley leaf segments cv. Hasso, inoculated 2 days after application, assessed 5-7 days after application
Description: as §2, with “Barley” for “Wheat”, “Hasso” for “Kanzler”, “segments” for “disks”, “inoculated” for “inoculated test”, “65%” for “75%”, “as” for “as percent”

Sclerotinia sclerotiorum = assay: Sclerotinia sclerotiorum/liquid culture (cottony rot); assay type: cell-based; details: liquid culture (mycelia fragments), PDB, 24° C., growth inhibition photometric 3-4 days after application, read-out: control of Sclerotinia sclerotiorum compared to untreated control
Description: as §1, with “Mycelia fragments of a newly grown liquid culture” for “Conidia”, “fungus” for “fungus from cryogenic storage”, “(PDB potato dextrose” for “(Vogels”, “format)” for “format),”, “material” for “spores”

[4] = test system: Mycosphaerella graminicola; assay: Mycosphaerella graminicola (Septoria tritici)/liquid culture (Septoria blotch); assay type: cell-based; details: Zymoseptoria tritici, liquid culture, PDB, 24° C., growth inhibition photometric 4-5 days after application, read-out: control of Mycosphaerella graminicola compared to untreated control
Description: as §1, with “(PDB potato dextrose” for “(Vogels”, “4-5” for “3-4”

Gibberella zeae = assay type: in vivo, Gibberella zeae (Fusarium graminearum); details: 200 ppm; preventative; wheat spikelets cv. Monsun; inoculated one day after application; assessed 6-8 days after application

Compound	control of Alternaria solani compared to untreated control (Alternaria solani)	inhibition of growth at 20 ppm (Botryotinia fuckeliana)	inhibition of growth at 20 ppm (Glomerella lagenarium)	control of Blumeria graminis f. sp. tritici compared to untreated control [1]	inhibition of growth at 20 ppm (Fusarium culmorum)	control of Phaeosphaeria nodorum compared to untreated control (Phaeosphaeria nodorum)	inhibition of growth at 20 ppm (Monographella nivalis)	inhibition of growth at 20 ppm (Mycosphaerella arachidis)	control of Puccinia recondita f. sp. tritici compared to untreated control [2]	control of Puccinia recondita f. sp. tritici compared to untreated control [3]	control of Pyrenophora teres compared to untreated control (Pyrenophora teres)	inhibition of growth at 20 ppm (Sclerotinia sclerotiorum)	inhibition of growth at 20 ppm [4]	control of Gibberella zeae compared to untreated control (Gibberella zeae)
Cc1c([C@H]2CN(C(=O)c3nnn(-c4ccc(F)cc4F)n3)[C@@H](C)c3ccccc32)cnn1C (racemic) [Compound P-42, [2-(2,4-difluorophenyl)tetrazol-5-yl]-[rac-(1S,4S)-4-(1,5-dimethylpyrazol-4-yl)-1-methyl-3,4-dihydro-1H-isoquinolin-2-yl]methanone]	at least 80%	≥ 80%	≥ 80%	at least 80%	≥ 80%	at least 80%	≥ 80%	≥ 80%	at least 80%	at least 80%	at least 80%	≥ 80%	≥ 80%	–
C[C@H]1c2ccccc2[C@@H](c2cnn(C)c2Cl)CN1C(=O)c1cn(-c2ncc(F)cc2F)nn1 [Compound P-54, [(1S,4S)-4-(5-chloro-1-methyl-pyrazol-4-yl)-1-methyl-3,4-dihydro-1H-isoquinolin-2-yl]-[1-(3,5-difluoro-2-pyridyl)triazol-4-yl]methanone]	at least 80%	≥ 80%	≥ 80%	at least 80%	≥ 80%	at least 80%	≥ 80%	≥ 80%	–	–	at least 80%	–	≥ 80%	at least 80%
